# Experiments:
# [1] = tested on: secreted mouse PGRN; assay: progranulin induction cellular assay (PGRN assay, ELISA-based readout); details: progranulin secreted into cell culture medium, cells named in method: mouse primary microglia, primary cortical neurons, BV-2
# Experimental: Cellular Assays: To measure the efficacy of compounds, a progranulin induction cellular assay in mouse primary microglia (pMG), primary cortical neurons, and BV-2 cell lines is used. BV-2 cells are split the day before plating into a 96well plate format at approximately 80%. Cells should be plated the day before and allowed for 1 hour attachment period and for 16 hour incubation. Levels of progranulin secreted into the cell culture medium or retained in the cell lysate can be quantified using an ELISA-based readout and measurement of secreted mouse PGRN in the medium was assessed by the methodology published by Ghidoni et al. 2012. Standard ELISA kits to measure PGRN are available from vendors such as Adipogen, R&D, and Biovendor.
# Table D below presents the results of a PGRN assay as described above.
# [2] = tested on: mouse BV2 cells; assay: secretion of progranulin from mouse BV2 cells; assay type: cell-based
# From the text: The compounds disclosed herein (e.g., compounds of Formula I, II, IIa, IIb, III, and as shown in Tables A and B) can increase the amount of progranulin or granulin in a subject. In some cases, the compounds increase the amount of progranulin in a subject. In some cases, the compounds increase the amount of granulin in a subject. In some cases, the compounds affect cells to increase secretion of progranulin. Solifenacin is a drug currently used for urinary incontinence. […] As such, the compounds disclosed herein, (e.g., compounds of Formula I, II, IIa, IIb, III, and as shown in Tables A and B) can be useful in treating disorders associated with aberrant (e.g., reduced) progranulin secretion or activity.
SMILES,EC50 ([1]; Mus musculus) [nM],further results
CN1CCC[C@@]2(CN=C(N3CCc4ccccc4[C@H]3c3cccc(F)c3F)O2)C1 (stereo in doubt) [Compound 3044],5000,–
O=C(O[C@H]1CN2CCC1CC2)N1CCc2ccccc2[C@@H]1c1ccccc1 [Solifenacin],–,secretion of progranulin [2]: causes the secretion of progranulin
"Fc1ccc([C@H]2c3ccccc3CCN2C2=N[C@@]3(CO2)CN2CCC3CC2)cc1 (single isomer, unassigned) [Compound 3057B]",126,–
Fc1cccc([C@H]2c3ccccc3CCN2C2=NC[C@]3(CN4CCC3CC4)O2)c1 (stereo in doubt) [Compound 3021],> 10000,–
"CN1CCC[C@@]2(CN=C(N3CCc4ccccc4[C@@H]3c3ccc(F)cc3F)O2)C1 (single isomer, unassigned) [Compound 3015]",880,–
"CN1CCC[C@]2(CN=C(N3CCc4ccccc4[C@@H]3c3cccc(F)c3)O2)C1 (single isomer, unassigned) [Compound 3009]",–,EC50 [1]: 7020 nM
"c1ccc([C@H]2c3ccccc3CCN2C2=NC[C@@]3(CN4CCC3CC4)O2)cc1 (single isomer, unassigned) [Compound 3041]",1720,–
"Fc1ccc([C@H]2c3ccccc3CCN2C2=NO[C@@]3(CN4CCC3(F)CC4)O2)cc1 (single isomer, unassigned) [Compound 3034]",450,–
"Fc1ccc([C@H]2c3ccccc3CCN2C2=NC[C@@]3(CN4CCC3CC4)O2)c(F)c1 (single isomer, unassigned) [Compound 3016]",860,–
"Fc1ccc([C@H]2c3ccccc3CCN2C2=NC[C@]3(CN4CCC3(F)CC4)O2)cc1 (single isomer, unassigned) [Compound 3033]",2380,–
"Fc1ccc([C@H]2c3ccccc3CCN2C2=N[C@]3(CO2)CN2CCC3CC2)cc1 (single isomer, unassigned) [Compound 3057A]",231,–
"CN1CCC2(CC1)COC(N1CCc3ccccc3[C@@H]1c1ccc(F)cc1)=N2 [Compound 3058, (S)-2-(1-(4-fluorophenyl)-3,4-dihydroisoquinolin-2(1H)-yl)-8-methyl-3-oxa-1,8-diazaspiro[4.5]dec-1-ene]",380,–

# Second part, led by results:
EC50 ([1]; Mus musculus) [nM],SMILES,further results
127,"N[C@H]1CC[C@]2(CN=C(N3CCc4ccccc4[C@@H]3c3ccc(F)cc3)O2)C1 (single isomer, unassigned) [Compound 3078]",–
68.7,"CN1CC[C@]2(CN=C(N3CCc4ccccc4[C@@H]3c3ccc(F)cc3)O2)C1 [Compound 3168, (R)-2-((S)-1-(4-fluorophenyl)-3,4-dihydroisoquinolin-2(1H)-yl)-7-methyl-1-oxa-3,7-diazaspiro[4.4]non-2-ene]",–
115,"N[C@H]1C[C@@]2(CN=C(N3CCc4ccccc4[C@@H]3c3ccc(F)cc3)O2)C1 [Compound 3061, (S)-6-(1-(4-fluorophenyl)-3,4-dihydroisoquinolin-2(1H)-yl)-5-oxa-7-azaspiro[3.4]oct-6-en-2-amine]",–
77.7,"Fc1ccc([C@H]2c3ccccc3CCN2C2=N[C@H](C3(F)CNC3)CO2)cc1 (single isomer, unassigned) [Compound 3157]",–
204,"N[C@H]1CC[C@@]2(COC(N3CCc4ccccc4[C@@H]3c3ccc(F)cc3)=N2)C1 [Compound 3084, (5S,7S)-2-((S)-1-(4-fluorophenyl)-3,4-dihydroisoquinolin-2(1H)-yl)-3-oxa-1-azaspiro[4.4]non-1-en-7-amine]",–
312,"Fc1ccc([C@H]2c3ccccc3CCN2C2=N[C@H](C3CCNCC3)CO2)cc1 (single isomer, unassigned) [Compound 3134]",–
110,"N[C@H]1CC[C@@]2(CN=C(N3CCc4ccccc4[C@@H]3c3ccc(F)cc3)O2)C1 (single isomer, unassigned) [Compound 3080]",–
481,"Fc1ccc([C@H]2c3ccccc3CCN2C2=NC[C@@H]([C@@H]3CCCNC3)O2)cc1 (single isomer, unassigned) [Compound 3149]",–
85.3,O=C1N[C@@]2(CCCNC2)N=C1N1CCc2ccccc2[C@@H]1c1ccc(F)cc1 [Compound 3148],–
66.9,"Fc1ccc([C@H]2c3ccccc3CCN2C2=N[C@@H]([C@H]3CCNC3)CO2)cc1 (single isomer, unassigned) [Compound 3073]",–
96.6,"Fc1ccc([C@H]2c3ccccc3CCN2C2=NC[C@@H](C3CNC3)O2)cc1 (single isomer, unassigned) [Compound 3070]",–
137,"CN(C)[C@@H]1CC[C@]2(CN=C(N3CCc4ccccc4[C@@H]3c3ccc(F)cc3)O2)C1 (single isomer, unassigned) [Compound 3164]",–
940,"CN1CCC[C@H]([C@H]2CN=C(N3CCc4ccccc4[C@@H]3c3ccc(F)cc3)O2)C1 (single isomer, unassigned) [Compound 3153]",–
208,"Fc1ccc([C@H]2c3ccccc3CCN2C2=NC[C@H]([C@@H]3CCNC3)O2)cc1 (single isomer, unassigned) [Compound 3063]",–
836,"Fc1ccc([C@H]2c3ccccc3CCN2C2=NC[C@]3(CCN(CC(F)(F)F)C3)O2)cc1 [Compound 3171, (R)-2-((S)-1-(4-fluorophenyl)-3,4-dihydroisoquinolin-2(1H)-yl)-7-(2,2,2-trifluoroethyl)-1-oxa-3,7-diazaspiro[4.4]non-2-ene]",–
3100,"CN1CCC[C@@H]([C@H]2CN=C(N3CCc4ccccc4[C@@H]3c3ccc(F)cc3)O2)C1 (single isomer, unassigned) [Compound 3151]",–
200,"Fc1ccc([C@H]2c3ccccc3CCN2C2=NC[C@]3(CNC[C@@H]3F)O2)cc1 (single isomer, unassigned) [Compound 3169]",–

# From patent publication US20220409593A1 (ARKUDA THERAPEUTICS, priority 2019, published 2022)
